Reference: patent US9132084B2, “Methods for administration and formulations for the treatment of regional adipose tissue” (NEOTHETICS, INC., priority 2009, dated 2015)

Tests used:
[1] = Plasma pharmacokinetics following single intravenous and subcutaneous injections of salmeterol xinafoate; conditions: for AUC(0-inf): AUCinf; for half-life: t1/2
Method: Salmeterol xinafoate was formulated in 5% PEG-400 in 0.9% saline, USP, at concentrations of 0.1, 1, 10, and 100 μg/mL. 1 male and 1 female non-naive Gottingen minipigs (18.4 to 19.5 kg at the time of the IV dose) were utilized. The animals were housed individually.
Each minipig received a single IV injection followed by SC doses of the salmeterol formulation. The IV dose was administered by slow bolus (1 minute; 0.0167 hr) into the marginal ear vein, whereas the first SC dose was administered as a bolus injection along the back (neck-region) where there was a longitudinal fat depot. The second SC dose was distributed in 5 separate SC injection sites. The fourth, fifth, and sixth administrations were SC administrations divided over 5 injection sits of different graded concentrations (0.1, 1, and 10 μg/mL of salmeterol in 5% PEG). Each dose was separated by at least a 3-day washout period. Blood samples (approximately 4 mL) were collected via the branchiocephalic plexus at pre-dose and at 2.00, 5.00, 10.0, 20.0, 30.0 and 45.0 minutes, and at 1.00, 2.00, 4.00, 8.00 and 24.0 hr post-dose. Blood samples were placed in tubes containing K2-EDTA as the anticoagulant. Samples were processed to plasma by centrifugation and stored frozen at approximately −70° C. (+/−15° C.) until shipment for analysis.
Plasma samples were analyzed for salmeterol using a qualified liquid chromatography/mass spectrometry/mass mass spectrometry (LC/MS/MS) method. The lower limit of quantitation (LLOQ) was 2.50 pg/mL. Samples were analyzed within a maximum of 14.0 days of collection.
Non-compartmental pharmacokinetic parameters were calculated using WinNonlin 5.2 software, NCA model 202, IV infusion input for the IV data and NCA model 200, extravascular input for the SC data. Individual plasma concentrations for each animal were used in the calculation of pharmacokinetic parameters. Nominal collection times and doses were used in the calculations. The area under the plasma concentration-time curve (AUC) was calculated using linear trapezoidal approximation (linear/log interpolation). Concentration values below the assay limit of quantitation were set to zero for calculations. The maximum plasma concentration (Cmax) and the time of its occurrence (Tmax) were verified by inspection. The half-life (t1/2) values were calculated using the last 3 plasma concentrations with nonzero values, if data permitted.

[2] = versus albuterol, a short-acting hydrophilic beta-adrenergic agonist; cited from earlier work
[3] = tested on: abdominal subcutaneous adipose tissue; assay: Phase 2 double-masked evaluation of safety and efficacy of SX and FP subcutaneous injection; conditions: total weekly SX/FP dose of 11 μg/22 μg
Text: A Phase 2 study to examine the potential of selected doses of salmeterol xinafoate (SX) and fluticasone propionate (FP) co-administered to reduce abdominal subcutaneous adipose tissue, which is an interim surrogate to guide studies in subjects with symptomatic exophthalmos associated with thyroid-related eye disease (TED). The study also evaluated the safety and efficacy of subcutaneous injections of salmeterol xinafoate (SX) and fluticasone propionate (FP) for the reduction of abdominal (peri- and infra-umbilical) adiposity. The study compared the efficacy and safety of salmeterol xinafoate (SX) and fluticasone propionate (FP) at 1.0 μg FP and 0.05 μg SX once weekly to 1 mL placebo once weekly for 8 weeks for the reduction of measurable, abdominal subcutaneous adipose tissue. Additionally, the study evaluated in a double-masked, placebo-controlled design, the pharmacokinetics following multiple injected doses of salmeterol xinafoate (SX) and fluticasone propionate (FP) once weekly for 8 weeks. […]
All injections were performed in an outpatient setting. […] Once the study was completed and unmasked, only the serum samples collected from subjects receiving the higher combination dose were analyzed.

[4] = Phase 1 open-label pharmacokinetics and safety of SX and FP co-administered subcutaneously in healthy volunteers; conditions: 52 μg salmeterol xinafoate with 22 μg fluticasone propionate SC once per week for 4 weeks
Method: Part III: An open-label, multiple-dose pharmacokinetic study of the selected SX+FP combined dose administered subcutaneously either 1 time per week for 4 weeks or 3 times per week for 4 weeks in twelve (12) healthy volunteers.
A 400 μg/mL sterile, preservative-free, clear, aqueous solution for injection of SX is contained in a 5 mL single-use glass vial. Each 5 mL single-use glass vial contains 2.6 mL of SX solution (400 μg/mL) which is stored frozen (−15° C. to −25° C.) and protected from light until dose preparation. A 25 mg/mL sterile, preservative free, clear, aqueous solution for injection of FP is contained in a 2 mL single-use glass vial. Each 2 mL single-use glass vial contains 1.0 mL of FP solution (25 μg/mL) which is stored frozen (−15° C. to −25° C.) and protected from light until dose preparation. Diluent: A sterile, preservative free, clear, aqueous solution of 20% PEG 400, 1% polysorbate 80, and sterile water for injection contained in a 10 mL single-use glass vial. Each 10 mL single-use glass vial contains 5.0 mL of diluent solution which should be stored at room temperature (15° C. to 25° C.). Prior to administration, the drug products are thawed, mixed, and if necessary diluted with sterile diluent to provide the target concentrations for dose administration. […]

[5] = tested on: abdominal subcutaneous adipose tissue
Text: To evaluate in a single masked, placebo-controlled design, the safety and exploratory efficacy measures of subcutaneous injections of three different doses of the combination of salmeterol xinafoate (SX) and fluticasone propionate (FP) administered by subcutaneous injection 1 or 2 times per week for 4 weeks to subjects with measurable abdominal subcutaneous adipose tissue.
A single-masked, placebo-controlled multiple-dose study of the safety and efficacy of three different doses of the combination of salmeterol xinafoate (SX) and fluticasone propionate (FP) administered by subcutaneous injection 1 or 2 times per week for 4 weeks in 60 subjects with measurable abdominal subcutaneous adipose tissue.
A 400 μg/mL sterile, preservative-free, clear, aqueous solution for injection of SX is contained in a 5 mL single-use glass vial. Each 5 mL single-use glass vial contains 2.6 mL of SX solution (400 μg/mL) which is stored frozen (−15° C. or below) and protected from light until dose preparation. A 25 mg/mL sterile, preservative free, clear, aqueous solution for injection of FP is contained in a 2 mL single-use glass vial. […]
Measurements of waist were taken at specified time points. […] The full waist circumference, and the right and the left hemi-circumferences were recorded.

[6] = female, Gottingen, minipig, in vivo, iv, 4 ug/kg
[7] = female, Gottingen, minipig, in vivo, sc, 0.4 ug/kg
[8] = female, Gottingen, minipig, in vivo, sc, 4 ug/kg
[9] = male, Gottingen, minipig, in vivo, iv, 4 ug/kg
[10] = male, Gottingen, minipig, in vivo, sc, 0.4 ug/kg
[11] = male, Gottingen, minipig, in vivo, sc, 4 ug/kg

With `OCc1cc(C(O)CNCCCCCCOCCCCc2ccccc2)ccc1O` (racemic) [Salmeterol, ±2-(hydroxymethyl)-4-[1-hydroxy-2-[6-(4-phenylbutoxy)hexylamino]ethyl]-phenol] the Tmax ([1]; SC5 (5 sites) 4 μg/kg, male 1-0771) was 0.0833 h, the “salmeterol partition ratio (plasma Cmax ratio of subcutaneous to intravenous administration)” value ([1]; both, Gottingen, minipig, in vivo) was 0.1 and the concentration at 0.0833 hr ([1]; female, Gottingen, minipig, in vivo) was 0.485 ng/mL. For the same molecule, the bioavailability ([1]; female, Gottingen, minipig, in vivo, 0.4 ug/kg, F (bioavailability)) was 112%, the concentration at 0.0833 hr ([1]; female, Gottingen, minipig, in vivo, 0.04 mg/kg) was 0.00317 ng/mL and the concentration at 0.0833 hr ([1]; female, Gottingen, minipig, in vivo, iv) was 1.3 ng/mL. The Vd [1, 6] was 22.1 L/kg, the clearance [1, 6] was 45.5 mL/min/kg and the AUC(0-inf) [1, 6] was 1.47 ng·h/mL. It also gave a Cmax ([1]; female, Gottingen, minipig, in vivo, iv, 4 ug/kg, Cmax) of 4.95 ng/mL, a Tmax ([1]; female, Gottingen, minipig, in vivo, iv, 4 ug/kg, Tmax) of 0.0333 h and a half-life [1, 6] of 9.52 h. The concentration at 0.0833 hr ([1]; female, Gottingen, minipig, in vivo, sc) was 0.227 ng/mL, the Cmax ([1]; female, Gottingen, minipig, in vivo, sc, 0.004 ug/kg, Cmax) was 0.00308 ng/mL and the Tmax ([1]; female, Gottingen, minipig, in vivo, sc, 0.004 ug/kg, Tmax) was 1 h. For the same molecule, the Cmax ([1]; female, Gottingen, minipig, in vivo, sc, 0.04 ug/kg, Cmax) was 0.00831 ng/mL, the Tmax ([1]; female, Gottingen, minipig, in vivo, sc, 0.04 ug/kg, Tmax) was 0.0333 h and the “F (bioavailability)” value [1, 7] was 1.12. For the same molecule, the AUC(0-inf) [1, 7] was 0.164 ng·h/mL, the Cmax ([1]; female, Gottingen, minipig, in vivo, sc, 0.4 ug/kg, Cmax) was 0.113 ng/mL and the Tmax ([1]; female, Gottingen, minipig, in vivo, sc, 0.4 ug/kg, Tmax) was 0.0333 h. For the same molecule, the half-life [1, 7] was 2.88 h, the AUCinf [1, 8] was 2.01 ng·h/mL and the Cmax [1, 8] was 0.626 ng/mL. For the same molecule, the “F (bioavailability)” value [1, 8] was 1.37, the t1/2 [1, 8] was 8.58 h and the AUC(0-inf) [1, 8] was 1.85 ng·h/mL. It also gave a Cmax ([1]; female, Gottingen, minipig, in vivo, sc, 4 ug/kg, Cmax) of 0.403 ng/mL, a bioavailability ([1]; female, Gottingen, minipig, in vivo, sc, 4 ug/kg, F (bioavailability)) of 126% and a bioavailability ([1]; female, Gottingen, minipig, in vivo, sc, 4 ug/kg, bioavailability) of 126 to 137%. It also gave a half-life [1, 8] of 6.02 h, a concentration at 0.0833 hr ([1]; male, Gottingen, minipig, in vivo) of 0.681 ng/mL and a bioavailability ([1]; male, Gottingen, minipig, in vivo, 0.4 ug/kg, F (bioavailability)) of 78.9%. It also gave a concentration at 0.0833 hr ([1]; male, Gottingen, minipig, in vivo, 0.04 mg/kg) of 0.00277 ng/mL, a concentration at 0.0833 hr ([1]; male, Gottingen, minipig, in vivo, iv) of 1.38 ng/mL and a Vd [1, 9] of 17.1 L/kg. For the same molecule, the clearance [1, 9] was 38 mL/min/kg, the AUC(0-inf) [1, 9] was 1.75 ng·h/mL and the Cmax ([1]; male, Gottingen, minipig, in vivo, iv, 4 ug/kg, Cmax) was 4.29 ng/mL. The Tmax ([1]; male, Gottingen, minipig, in vivo, iv, 4 ug/kg, Tmax) was 0.0333 h, the half-life [1, 9] was 7.89 h and the concentration at 0.0833 hr ([1]; male, Gottingen, minipig, in vivo, sc) was 0.575 ng/mL. For the same molecule, the Tmax ([1]; male, Gottingen, minipig, in vivo, sc, 0.04 ug/kg) was 0.0833 h, the Cmax ([1]; male, Gottingen, minipig, in vivo, sc, 0.04 ug/kg, Cmax) was 0.00277 ng/mL and the “F (bioavailability)” value [1, 10] was 0.789. For the same molecule, the Tmax [1, 10] was 0.0833 h, the AUC(0-inf) [1, 10] was 0.138 ng·h/mL and the Cmax ([1]; male, Gottingen, minipig, in vivo, sc, 0.4 ug/kg, Cmax) was 0.0645 ng/mL. The half-life [1, 10] was 2.94 h, the AUCinf [1, 11] was 1.51 ng·h/mL and the Cmax [1, 11] was 0.681 ng/mL. The “F (bioavailability)” value [1, 11] was 0.863, the Tmax [1, 11] was 0.0833 h and the t1/2 [1, 11] was 6.84 h. For the same molecule, the AUC(0-inf) [1, 11] was 1.29 ng·h/mL, the Cmax ([1]; male, Gottingen, minipig, in vivo, sc, 4 ug/kg, Cmax) was 0.575 ng/mL and the bioavailability ([1]; male, Gottingen, minipig, in vivo, sc, 4 ug/kg, F (bioavailability)) was 73.7%. The bioavailability ([1]; male, Gottingen, minipig, in vivo, sc, 4 ug/kg, bioavailability) was 73.7 to 86.3%, the half-life [1, 11] was 5.92 h and the “partition ratio relative to the partition ratio of formoterol” value ([1]; minipig, in vivo) was “about five times lower”. For the same molecule, the Cmax ([1]; minipig, in vivo, 0.004 ug/kg) was 0 ng/mL and the “lipophilicity relative to albuterol” value [2] was “at least 10,000 times”.
In the case of fluticasone propionate, the “plasma levels relative to 505(b)(2) reference levels produced by an FDA-approved drug” value [3] is reported as “⅓-⅕” and the “Cmax and AUC at day 22 compared to day 1” value [4] is reported as “increase”.
With `OCc1cc(C(O)CNCCCCCCOCCCCc2ccccc2)ccc1O` (stereo not drawn) [salmeterol xinafoate] the “efficacy of once per week versus twice per week dosing” value ([5]; human clinical trial, FIGS. 3B and 7B) was “more efficacious than twice per week dosing” and the “dose-therapeutic efficacy response (change in waist circumference)” value ([5]; lowest dose 0.5 μg salmeterol xinafoate once per week for 4 weeks, with fluticasone, versus higher weekly doses) was “greatest therapeutic efficacy”.
